# Reference: US5162354A, “3-halo-5-halomethyl-2-oxazolidinones and their use as microbicides” (Buckman Laboratories International, Inc., priority 1991, dated 1992)
# Where two headings read alike, the source gives them in different places.
# Assays:
# Type in all cases: cell-based
# [1] = test system: mixture of Staphylococcus aureus, Enterobacter aerogenes and Pseudomonas aeruginosa; test: Long-term effectiveness in water as disinfectant, basal salts method, mixture of test organisms; conditions: for killing at 40 ppm / killing at 80 ppm: 24 h; for activity maintained (percent kill): up to three days post-preparation in water, short contact (up to 10 min)
# Description: In order to test the effectiveness of the compounds of the present invention over a period of 15 days, the following experiment was conducted using Compound 1.
# The basal salts method described in U.S. Pat. No. 2,881,070 at column 5, beginning at line 12 and extending to column 6, line 53 was performed at two different pH values and percent kills were obtained with a mixture of test organisms (Staphylococcus aureus, Enterobacter aerogenes and Pseudomonas aeruginosa). […] At 80 ppm, prolonged sanitizing ability is maintained (99% or greater) with prolonged exposure times (24 hours contact through 15 […] post-preparation in water).
# ^a Control indicates the population of the test organism and is used
# to make sure there is vigorous growth and to calculate % kills.
# [2] = test system: Klebsiella pneumonia; test: AOAC Disinfectant Swimming Pool Assay (Klebsiella pneumonia); conditions: Klebsiella pneumoniae, 10 min, read-out: MIC (Minimum inhibitory concentration required to inhibit microorganisms)
# Description: (§1) This example was based on the procedure described in AOAC (Association of Official Analytical Chemists) Official Methods of Analysis (1986) pp 75-77. The results obtained by this method are suitable for presumptive evidence of acceptability of products for disinfecting swimming pool water. The results obtained for Compound 1 in a contact time of 10 minutes are noted in Table IV.
# [3] = test system: Escherichia coli; test: Efficacy of Sanitizers Recommended for Non-Food Contact Surfaces, ASTM E 1153-87 (Escherichia coli); conditions: 99.9% kill, read-out: Minimum inhibitory concentration required to inhibit microorganisms
# Description: (§2) This test method is used to evaluate the antimicrobial efficacy of sanitizers on precleaned non-porous, non-food contact surfaces. This test was performed according to the test procedure E 1153-87 of ASTM. […] For most of the sanitizers, effectiveness is hampered (or minimum inhibitory concentrations go up) in the presence of an organic load. Therefore, the compounds of the present invention are tested both in the presence and absence of 5% organic load (Bovine albumin fraction V, Sigma Chemical Company).
# [4] = test system: Pseudomonas aeruginosa; test: AOAC Disinfectant Swimming Pool Assay (Pseudomonas aeruginosa); conditions: 10 min, contact time 10 minutes, read-out: MIC (Minimum inhibitory concentration required to inhibit microorganisms)
# Description: as §1
# [5] = test system: Phormidium inundatum; test: Growth inhibiting activity against algae in Difco Algae Broth (Phormidium inundatum); conditions: 672 h, pH 7, read-out: Minimum inhibitory concentration against algae
# Description: The growth inhibiting activity of the method of the invention against the three algae Chlorella pyrenoidosa, Chlorococcum hypnosporum and Phormidium inundatum was evaluated in Difco Algae Broth, the content of which was as follows:
# Forty-gram portions of the algae medium were added to 250 mL Pyrex Erlenmeyer flasks fitted with loose metal caps and then sterilized. Each of the following substances was then added to the flasks in the order listed:
# 1. Sterile algae medium as required to bring the total weight of the contents of each flask to 50 grams, after allowing for all subsequent additions specified below.
# 2. A solution of one of compounds 1-4 or of a control agent to be evaluated in each test, to give the concentration desired in parts per million by weight.
# 3. Chlorella pyrenoidosa, Chlorococcum hypnosporum and Phormidium inundatum in amounts sufficient to give excellent growth in the controls after 14 days. This was achieved by adding 1 milliliter of a 14 day old culture having luxuriant growth. The Chlorella pyrenoidosa culture was obtained from American Type Culture Collection No. 7516; Chlorococcum hypnosporum, from the University of TX at Austin; and Phormidium inundatum, WI No. 1093, from the University of WA.
# As a control experiment, WSCP was used as a positive control agent. WSCP is a known toxicant which kills C. pyrenoidosa at 2 ppm, C. hypnosporum at 2ppm, and P. inundatum at 10 ppm. Control experiments were also carried out where no toxicants were employed. In the algicidal tests, the growth of algae in the nutrient medium is lush green and can be seen with the naked eye. Because the minimum inhibitory concentrations of the compounds in this example are those which result in complete inhibition, evaluation of the test results is not subjective.
# After the inoculum of the test algae was added, the flasks were incubated at a temperature of 28°±2° C. under fluorescent illumination of 250 foot-candle intensity (8 hours light, 16 hours darkness) for a period adequate for growth in the controls (those portions of medium which contained no toxicant). Observations of growth were made at 7-day intervals. Minimum inhibitory concentrations are those that prevented complete growth after 28 days.
# [6] = test system: Enterobacter aerogenes; test: Basal salts method, minimum inhibitory concentration against Enterobacter aerogenes; conditions: Klebsiella aerogenes, at least 80% kill
# Description: Compounds 1-4 of Examples 3-6 of the present invention were tested by the basal salts method described in U.S. Pat. No. 2,881,070 at column 5, beginning at line 12 and extending to column 6, line 53. […] The minimum inhibitory concentrations are those in which a percentage kill of at least 80% is obtained.
# [7] = test system: Staphylococcus aureus; test: Efficacy of Sanitizers Recommended for Non-Food Contact Surfaces, ASTM E 1153-87 (Staphylococcus aureus); conditions: 99.9% kill, read-out: Minimum inhibitory concentration required to inhibit microorganisms
# Description: as §2
# [8] = With 5% organic load (bovine albumin)
smiles,measurement,setting,value
"O=C1OC(CCl)CN1Br (stereo not shown) [Compound 1, 3-Bromo-5-chloromethyl-2-oxazolidinone]",killing at 40 ppm,"[1]; pH 6, Day 4 after preparation in soft water, pH 6.0, 24 hours contact, read-out: % Reduction (Kill)",99.6%
same,killing at 80 ppm,"[1]; pH 6, Day 4 after preparation in soft water, 80 ppm, pH 6.0, 24 hours contact, read-out: % Reduction (Kill)",99.9%
same,killing at 40 ppm,"[1]; pH 6, Day 5 after preparation in soft water, pH 6.0, 24 hours contact, read-out: % Reduction (Kill)",91.8%
same,killing at 80 ppm,"[1]; pH 6, Day 5 after preparation in soft water, 80 ppm, pH 6.0, 24 hours contact, read-out: % Reduction (Kill)",99.6%
same,killing at 40 ppm,"[1]; pH 6, Day 14 after preparation in soft water, pH 6.0, 24 hours contact, read-out: % Reduction (Kill)",99.8%
same,killing at 80 ppm,"[1]; pH 6, Day 14 after preparation in soft water, 80 ppm, pH 6.0, 24 hours contact, read-out: % Reduction (Kill)",100%
same,killing at 40 ppm,"[1]; pH 6, Day 15 after preparation in soft water, pH 6.0, 24 hours contact, read-out: % Reduction (Kill)",96%
same,killing at 80 ppm,"[1]; pH 6, Day 15 after preparation in soft water, 80 ppm, pH 6.0, 24 hours contact, read-out: % Reduction (Kill)",100%
same,killing at 40 ppm,"[1]; pH 8, Day 1 after preparation in soft water, pH 8.0, 24 hours contact, read-out: % Reduction (Kill)",100%
same,killing at 80 ppm,"[1]; pH 8, Day 1 after preparation in soft water, 80 ppm, pH 8.0, 24 hours contact, read-out: % Reduction (Kill)",100%
same,killing at 40 ppm,"[1]; pH 8, Day 2 after preparation in soft water, pH 8.0, 24 hours contact, read-out: % Reduction (Kill)",100%
same,killing at 80 ppm,"[1]; pH 8, Day 2 after preparation in soft water, 80 ppm, pH 8.0, 24 hours contact, read-out: % Reduction (Kill)",100%
same,killing at 40 ppm,"[1]; pH 8, Day 3 after preparation in soft water, pH 8.0, 24 hours contact, read-out: % Reduction (Kill)",100%
same,killing at 80 ppm,"[1]; pH 8, Day 3 after preparation in soft water, 80 ppm, pH 8.0, 24 hours contact, read-out: % Reduction (Kill)",100%
same,killing at 40 ppm,"[1]; pH 8, Day 4 after preparation in soft water, pH 8.0, 24 hours contact, read-out: % Reduction (Kill)",98.7%
same,killing at 80 ppm,"[1]; pH 8, Day 4 after preparation in soft water, 80 ppm, pH 8.0, 24 hours contact, read-out: % Reduction (Kill)",100%
same,killing at 40 ppm,"[1]; pH 8, Day 5 after preparation in soft water, pH 8.0, 24 hours contact, read-out: % Reduction (Kill)",99.9%
same,killing at 80 ppm,"[1]; pH 8, Day 5 after preparation in soft water, 80 ppm, pH 8.0, 24 hours contact, read-out: % Reduction (Kill)",99.9%
same,killing at 40 ppm,"[1]; pH 8, Day 14 after preparation in soft water, pH 8.0, 24 hours contact, read-out: % Reduction (Kill)",99.5%
same,killing at 80 ppm,"[1]; pH 8, Day 14 after preparation in soft water, 80 ppm, pH 8.0, 24 hours contact, read-out: % Reduction (Kill)",99.9%
same,killing at 40 ppm,"[1]; pH 8, Day 15 after preparation in soft water, pH 8.0, 24 hours contact, read-out: % Reduction (Kill)",99.3%
same,killing at 80 ppm,"[1]; pH 8, Day 15 after preparation in soft water, 80 ppm, pH 8.0, 24 hours contact, read-out: % Reduction (Kill)",100%
same,killing at 80 ppm,"[1]; read-out: prolonged sanitizing ability maintained (percent kill), 80 ppm, 24 hours contact, through 15 days post-preparation in water",≥ 99%
same,activity maintained (percent kill),[1]; pH 6,≥ 99.99%
same,activity maintained (percent kill),[1]; pH 8,≥ 99.96%
same,MIC,[2],100 µg/mL
same,MIC,[3]; [8],160 µg/mL
same,MIC,[3]; Without organic load,80 µg/mL
same,MIC,[4],100 µg/mL
same,MIC,[5],2 µg/mL
same,MIC,[6]; pH 6.0,10 µg/mL
same,MIC,[6]; pH 8.0,10 µg/mL
same,MIC,[7]; [8],160 µg/mL
same,MIC,[7]; Without organic load,80 µg/mL
